Results published in US20230108050A1, “CXCL8 (INTERLEUKIN-8) ACTIVITY INHIBITOR AND CORTICOSTEROID COMBINATION AND PHARMACEUTICAL COMPOSITION AND USE THEREOF” (Dompe' farmaceutici SpA, priority 2020, published 2023).

Tests used:
Type in all cases: in vivo, BALB/c mice
[1] = tested on: Th17 glucocorticoid-insensitive asthma mouse model; experiment: Assessment of leukocyte content in the airways (BALF), Example 2a; settings: DF2755A 10 mg/kg oral twice a day, dexamethasone 5 mg/kg, BALF day 32
Method: The investigation was conducted on the same mouse model as described in Example 1. In details, BALB/c mice received systemic immunization by subcutaneous injection of 20 μg of chicken egg ovalbumin (OVA grade V, >98% pure; Sigma, St Louis, Mo.) in saline, emulsified in 75 μL CFA (Sigma-Aldrich) at day 0. From day 28 after first immunization to day 31, mice were treated with PBS (vehicle), D[…], dexamethasone or D[…]/dexamethasone as described below, and 60 minutes later exposed to aerosolized ovalbumin (1% in saline) for 20 minutes per day. D[…] was administered orally by gavage twice a day so that one of the administrations was always 60 min before the OVA challenge. D[…] was diluted in saline 0.9% only at the time of use at room temperature and used at the dose of 10 mg/kg via the oral route. […] To assess leukocyte infiltration in the airways, bronchoalveolar lavage fluid (BALF) was performed. On day 32 after immunization, an incision was made in the trachea where a 1.7 mm outside diameter polyethylene catheter was inserted. Then, the airways were washed 2 times with 1 mL of phosphate buffer saline (PBS). The samples were centrifuged at 300×g for 10 minutes at 4° C., and 100 μL of 3% BSA in PBS was added to the pellet. A sample of this solution was used to assess the total leukocytes in the airways. The remaining solution was centrifuged at 300×g for 10 minutes at 4° C. and put on a histology glass slide to perform the differential counting of macrophages, lymphocytes, eosinophils and neutrophils using an optical microscopy. The supernatant was used to quantify the amount of total protein and the levels of chemokines and cytokines. The total protein assay was determined using a Bio-Rad protein assay Dye Reagent (Bio-Rad, USA) to measure possible protein leakage.

[2] = tested on: Th17 glucocorticoid-insensitive asthma mouse model; experiment: Chemokine and cytokine analysis in lung (ELISA), Example 2b; settings: DF2755A 10 mg/kg oral twice a day, dexamethasone 5 mg/kg, lung supernatant ELISA
Method: (§1) The investigation was conducted on the same mouse model as described in Example 1. In details, BALB/c mice received systemic immunization by subcutaneous injection of 20 μg of chicken egg ovalbumin (OVA grade V, >98% pure; Sigma, St Louis, Mo.) in saline, emulsified in 75 μL CFA (Sigma-Aldrich) at day 0.
(§2) From day 28 after first immunization to day 31, mice were treated with PBS (vehicle), DF2755A, dexamethasone or DF2755A/dexamethasone as described below, and 60 minutes later exposed to aerosolized ovalbumin (1% in saline) for 20 minutes per day. DF2755A was administered orally by gavage twice a day so that one of the administrations was always 60 min before the OVA challenge. DF2755A was diluted in saline 0.9% only at the time of use at room temperature and used at the dose of 10 mg/kg via the oral route. Dexamethasone was diluted in saline 0.9% only at the time of use at room temperature and given at the dose of 5 mg/kg.
After BALF, the right lung was removed and a sample of 100 mg was homogenized in 1 mL of PBS (0.4 M NaCl and 10 mM of NaPO4) containing anti-proteases (0.1 mM phenylmethylsulfonyl fluoride, 0.1 mM benzetonium chloride, 10 mM EDTA and 20 KI aprotinin A). The homogenate was centrifuged 8,000×g for 10 minutes at 4° C. The supernatant was frozen for further ELISA assay and the pellet was frozen/thawed three times using liquid nitrogen to assess neutrophil myeloperoxidase (MPO) and eosinophil peroxidase (EPO) activities.
The chemokines CXCL1/KC, CCL2/MCP-1 and CCL24/Eotaxin2, and cytokines TNF-α, IFN-γ and IL-17A levels in supernatant of lung tissue were measured by ELISA. Results were expressed as levels of cytokines (pg/mL or ng/mL) per 0.1 g of wet tissue/mL of extraction buffer.

[3] = tested on: Th17 glucocorticoid-insensitive asthma mouse model; experiment: Neutrophil myeloperoxidase and eosinophil peroxidase activity assays in lung, Example 2c; settings: DF2755A 10 mg/kg oral twice a day, dexamethasone 5 mg/kg
Method: From day 28 after first immunization to day 31, mice were treated with PBS (vehicle), DF2755A, dexamethasone or DF2755A/dexamethasone as described below, and 60 minutes later exposed to aerosolized ovalbumin (1% in saline) for 20 minutes per day. DF2755A was administered orally by gavage twice a day so that one of the administrations was always 60 min before the OVA challenge. DF2755A was diluted in saline 0.9% only at the time of use at room temperature and used at the dose of 10 mg/kg via the oral route. Dexamethasone was diluted in saline 0.9% only at the time of use at room temperature and given at the dose of 5 mg/kg. […]
The neutrophil myeloperoxidase (MPO) and eosinophil peroxidase (EPO) activities were measured as follows. […] The reaction was stopped by adding 100 μL of H2SO4 and quantified at 450 nm wave lengths in a spectrophotometer (VERSAmax, Molecular Devices, CA). […] After 30 minutes of incubation at room temperature, the reaction was stopped by adding 50 μL of H2SO4 1M and quantified at 492 nm in spectrophotometer.

[4] = tested on: Th17 glucocorticoid-insensitive asthma mouse model; experiment: Assessment of pulmonary mechanics, Example 2d; settings: DF2755A 10 mg/kg oral twice a day, dexamethasone 5 mg/kg; 24 h after the last challenge; FIG. 8
Method: as §1, §2
(§3) Mice were anesthetized with a subcutaneous injection of ketamine and xylazine (130 mg/Kg ketamine and 8.5 mg/Kg xylazine) to maintain spontaneous breathing under anesthesia. […] Under mechanical respiration the Dynamic Compliance (Cdyn) and Lung Resistance (RI) were determined by Resistance and Compliance RC test. […]

[5] = tested on: Th17 glucocorticoid-insensitive asthma mouse model; experiment: Lung histology (H&E), Example 2e; settings: DF2755A 10 mg/kg oral twice a day, dexamethasone 5 mg/kg, FIG. 9
Method: After BALF, left lung was removed and fixed in formalin 4% in PBS (pH 7.4). The tissue was dehydrated gradually in ethanol, embedded in paraffin, cut into 4 μm sections and stained with Hematoxylin and Eosin. Photomicrographs were obtained at 400× magnification and were analyzed using the software Image Pro Plus (Image-Pro Plus 4.1, Media Cybernetics, USA).

[6] = tested on: Th17 glucocorticoid-insensitive asthma mouse model; experiment: Leukocytes and protein leakage in airways (BALF), Example 1a; settings: day 28-31, OVA aerosol
Method: (§4) The investigation was conducted by using a Th17 glucocorticoid-insensitive asthma mouse model previously described (Campa C C et al., Nat Commun (2018), v. 9, p. 5232 and Dejager Let al., Mucosal Immunol (2015), v. 8, p 1212-25).
(§5) In details, BALB/c mice received systemic immunization by subcutaneous injection of 20 μg of chicken egg ovalbumin (OVA grade V, >98% pure; Sigma, St Louis, Mo.) in saline, emulsified in 75 μL CFA (Sigma-Aldrich) at day 0.
(§6) From day 28 after first immunization to day 31, mice were treated with PBS (vehicle), ladarixin, dexamethasone or ladarixin/dexamethasone as described below, and 60 minutes later exposed to aerosolized ovalbumin (1% in saline) for 20 minutes per day. Ladarixin was administered orally by gavage (10 mg/Kg in saline 0.9%), as previously described (Bertini et al., Br J Pharmacol (2012), v. 165, p. 436-54), once a day. Dexamethasone was administered subcutaneously (5 mg/Kg in saline), once a day.
An assessment of total leukocytes content in airways was carried out by performing bronchoalveolar lavage fluid (BALF) as previously described (Russo et al Am J Respir Cell Mol Biol (2009), v. 40, p. 410-21; Campa C C et al., Nat Commun (2018), v. 9, p. 5232). Briefly, an incision was made in the trachea where a 1.7 mm outside diameter polyethylene catheter was inserted. Then, the airways were washed 2 times with 1 mL of phosphate buffer saline (PBS). The samples were centrifuged at 300×g for 10 minutes at 4° C., the pellet was collected, resuspended in 100 μL of 3% BSA in PBS and a sample from this solution was used to assess the total leukocytes in the airways. The remaining was centrifuged at 300×g for 10 minutes at 4° C. on a histology glass slide to assess differential counting of macrophages, lymphocytes, eosinophils and neutrophils using an optical microscopy. Total protein was quantified in the BALF supernatant using a Bio-Rad protein assay Dye Reagent (Bio-Rad, USA) to measure possible protein leakage as previously described (Campa C C et al., Nat Commun (2018), v. 9, p. 5232).

[7] = tested on: Th17 glucocorticoid-insensitive asthma mouse model; experiment: Cytokines quantification in lung tissue (ELISA), Example 1b; settings: ladarixin 10 mg/Kg oral, dexamethasone 5 mg/Kg s.c., lung lysate ELISA
Method: as §4, §5, §6
The levels of IL17A and TNF-α were also measured in the different experimental mice groups. […] Levels of IL-17A and TNF-α were measured by ELISA using commercial DuoSet kits from R&D Systems, according to the instructions of the manufacturer. Results, shown in FIG. 2, are expressed as pg of cytokines per ml of lung lysate (pg/ml).

[8] = tested on: Th17 glucocorticoid-insensitive asthma mouse model; experiment: Neutrophil peroxidase activity (MPO) in lung tissue, Example 1c; settings: ladarixin 10 mg/Kg oral, dexamethasone 5 mg/Kg s.c.; after OVA exposure; FIG. 4A
Method: MPO assay was performed on the lung tissue in the different experimental mice groups. In details, MPO assay was performed in a 96-well microplate by adding, in each well, 25 μL of 3,3′-5,5′-tetramethylbenzidine (TMB Sigma) diluted in dimethyl sulfoxide (DMSO; Merck, Darmstadt, Germany) at a final concentration of 1.6 mM; 100 μL of H2O2 0.02% vol/vol in PBS (pH 5.4) containing HTAB and 25 μL of processed tissue supernatant. The reaction started, at 37° C., by adding the TMB solution and the supernatant to the microplate and, after 5 min, H2O2 was added followed by a new incubation at 37° C. for 5 min. The reaction was stopped by adding 100 μL of H2SO4 1M and quantified at 450 nm wavelengths in a spectrophotometer (VERSA max, Molecular Devices, CA).

[9] = tested on: Th17 glucocorticoid-insensitive asthma mouse model; experiment: Histological analysis of lung, pulmonary inflammation score, Example 1d; settings: ladarixin 10 mg/Kg oral, dexamethasone 5 mg/Kg s.c.; six grade scale 0-5; FIG. 4D, FIG. 3
Method: In details, BALB/c mice received systemic immunization by subcutaneous injection of 20 μg of chicken egg ovalbumin (OVA grade V, >98% pure; Sigma, St Louis, Mo.) in saline, emulsified in 75 μL CFA (Sigma-Aldrich) at day 0. […]
Semiquantitative histopathology analyses were performed as described (Campa C C et al., Nat Commun (2018), v. 9, p. 5232). Briefly, ten random images per lung were acquired at 200× and pulmonary inflammation score was recorded according to a six grade scale where “0” corresponded to less than 1% of lung tissue area inflamed, “1” where up to 9% of lung area was affected by inflammation, “2” when 10% to 29% of lung tissue area was affected, “3” if 30% to 49% of lung tissue area was affected, “4” if 50% to 69% of lung tissue area was affected and “5” if more than 70% of the lung tissue area was affected by inflammation.
After BALF, left lung was removed and fixed in formalin 4% in PBS (pH 7.4), as previously described. […] Photomicrographs were obtained at 400× magnification and were analyzed using the software Image Pro Plus (Image-Pro Plus 4.1, Media Cybernetics, USA) under light microscopy. […]

[10] = tested on: Th17 glucocorticoid-insensitive asthma mouse model; experiment: Assessment of pulmonary mechanics, Example 1e; settings: ladarixin 10 mg/Kg oral, dexamethasone 5 mg/Kg s.c.; FIG. 5B
Method: as §4, §5, §6
as §3, with “Mice form different experimental groups” for “Mice”

C[C@H](C(=O)O)c1ccc(Nc2nc(C(F)(F)F)cs2)cc1 [DF2755A, (2S)-2-(4-{[4-(trifluoromethyl)-1,3-thiazol-2-yl]amino}phenyl) propanoic acid]
neutrophil influx into the airways (BALF) ([1]; day 28-31, FIG. 6B): able to reduce
eosinophil influx into the airways (BALF) ([1]; FIG. 6C): able to reduce
lymphocytes influx into the airways (BALF) ([1]; FIG. 6E): able to reduce
CXCL1 level in the lungs ([2]; FIG. 7A): significantly reduced
CCL2 level in the lungs ([2]; FIG. 7B): significantly reduced
CCL24 level in the lungs ([2]; FIG. 7C): significantly reduced
IFN-γ level in the lungs ([2]; FIG. 7D): not significant
IL-17 level in the lungs ([2]; FIG. 7E): significantly reduced
TNF-α level in the lungs ([2]; FIG. 7F): significantly reduced
accumulation of neutrophils in the lungs (MPO activity) ([3]; FIG. 6F): prevented the infiltration
infiltration of eosinophils in the lungs (EPO activity) ([3]; FIG. 6G): prevented the infiltration
pulmonary function / pulmonary mechanics (pulmonary volumes and resistance) [4]: did not significantly increased pulmonary function
lung inflammation, accumulation of leukocytes in the lung tissue (histology, inflammatory score) [5]: effective in reducing accumulation of leukocytes

C[C@@H](C(=O)NS(C)(=O)=O)c1ccc(OS(=O)(=O)C(F)(F)F)cc1 [ladarixin]
total leukocyte influx into alveolar space (BALF) ([6]; ladarixin 10 mg/Kg oral once a day, dexamethasone 5 mg/Kg s.c. once a day, FIG. 1A): reduces total leukocyte influx
macrophages infiltrated into airways (BALF) ([6]; ladarixin 10 mg/Kg oral, dexamethasone 5 mg/Kg s.c., FIG. 1B): marked reduction
neutrophils infiltrated into airways (BALF) ([6]; ladarixin 10 mg/Kg oral, dexamethasone 5 mg/Kg s.c., FIG. 1C): marked reduction
eosinophil recruitment into the airways (BALF) ([6]; ladarixin 10 mg/Kg oral, dexamethasone 5 mg/Kg s.c., FIG. 1D): increased
TNF-α level in lung parenchyma ([7]; FIG. 2A): significantly decreased
IL-17A level in lung parenchyma ([7]; FIG. 2B): significantly decreased
neutrophil accumulation in lung parenchyma (MPO activity) [8]: able to prevent the neutrophil accumulation
pulmonary inflammation score (lung histology) [9]: effective in reducing inflammation
airway hyperreactivity evoked by methacholine (ΔRI) [10]: able to reduce airway hyperreactivity
